Test results: US20240270730A1, “DRG-MDM2-2 FOR USE AS A NOVEL MOUSE DOUBLE MINUTE 2 (MDM2) INHIBITOR” (BAHCESEHIR UNIVERSITESI, priority 2020, published 2024)

Legend:
MDA-MB231 cell lines = assay: MTT cell viability assay (IC50); format: cell-based; details: Homo sapiens, MDA-MB-231; MDA-MB231 cells; single dose of treatment; concentrations 10-9 to 104 M; 570 nm absorbance; FIG. 1; read-out: IC50 (half-maximal inhibitory concentration), MTT cell viability
Description: HCT 116 colon cancer and MDA-MB231 breast cancer cell lines are used in cell culture experiments.
Cells were treated with high-glucose DMEM medium (Biosera) supplemented with 10% FBS (Gibco) and 1× penicillin/streptomycin (Multicell). The assay was designed to contain 10,000 cells for each well of 24-well cell culture plates before being treated with inhibitors.
Compound of formula I was dissolved with DMSO as 20 mM stock. 24 hours later, the solution was diluted in DMEM with 10% FBS and final concentration of vehicle DMSO was 0.5% at maximum. Therefore, the vehicle group included 0.5% DMSO concentration in experiments. Intensive cultivation of cells causes a decrease in proliferation capacity.
The MTT cell viability assay was used to detect values of half-maximal inhibitory concentration (IC50). Different concentrations of compound of formula I ranging between 10-9 to 104 M were tested on MDA-MB231 cell lines with single dose of treatment. 570 nm absorbance values were recorded and IC50 values were calculated by dose response—inhibition curves and nonlinear regression analysis on Graphpad Prism 8 software.

MDM2 protein = MDM2 protein (Homo sapiens, UniProt Q00987); details: compared with a natural p53 peptide; cited from earlier work
Sequence of MDM2 protein (Q00987 whole entry, species assumed): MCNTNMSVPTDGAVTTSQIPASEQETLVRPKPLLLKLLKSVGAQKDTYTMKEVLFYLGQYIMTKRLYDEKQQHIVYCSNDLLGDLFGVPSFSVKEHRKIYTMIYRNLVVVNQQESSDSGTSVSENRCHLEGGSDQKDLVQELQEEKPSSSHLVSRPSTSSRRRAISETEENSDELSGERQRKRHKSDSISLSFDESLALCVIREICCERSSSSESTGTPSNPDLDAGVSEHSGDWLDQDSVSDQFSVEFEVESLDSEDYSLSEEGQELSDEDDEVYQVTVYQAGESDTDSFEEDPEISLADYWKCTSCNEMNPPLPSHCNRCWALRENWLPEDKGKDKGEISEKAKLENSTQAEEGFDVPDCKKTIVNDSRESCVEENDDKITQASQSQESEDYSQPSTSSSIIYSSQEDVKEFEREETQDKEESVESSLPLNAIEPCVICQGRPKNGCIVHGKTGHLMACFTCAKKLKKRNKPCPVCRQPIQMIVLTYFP

Row | Molecule | IC50 (MDA-MB231 cell lines) [nM] | binding affinity to MDM2 protein relative to natural p53 peptide (MDM2 protein) [fold]
1 | O=C(NCc1nc(-c2ccccc2)no1)NC(Cc1c[nH]c2ccccc12)C(=O)O (centres unmarked) [compound of formula I] | 891 | –
2 | MI-319 | – | 500
